target: T1, GST-Aurora A (Homo sapiens, UniProt O14965); assay: Aurora A IC50, Caliper LC3000 mobility shift assay; format: biochemical; conditions: LC3000 method; 15 uM ATP (the KM value); read-out: Aurora Kinase A Activity (IC50)
T1 construct: N-terminal GST fusion with full length Aurora A (1-403 amino acids); purchased Carna Biosciences 05-101
T1 sequence (O14965 1-403): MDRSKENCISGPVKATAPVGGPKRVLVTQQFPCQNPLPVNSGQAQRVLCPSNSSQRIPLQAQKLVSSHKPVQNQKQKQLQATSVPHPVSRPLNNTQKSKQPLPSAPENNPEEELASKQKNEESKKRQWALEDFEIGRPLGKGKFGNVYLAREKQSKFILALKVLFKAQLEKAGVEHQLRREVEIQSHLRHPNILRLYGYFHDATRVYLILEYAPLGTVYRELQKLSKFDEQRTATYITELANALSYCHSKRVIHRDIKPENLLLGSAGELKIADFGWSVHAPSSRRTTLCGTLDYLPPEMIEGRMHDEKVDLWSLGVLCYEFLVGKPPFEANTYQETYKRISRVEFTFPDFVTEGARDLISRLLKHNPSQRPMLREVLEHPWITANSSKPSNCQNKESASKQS
Method in brief: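 Readout: percent conversion of FITC-LRRASLG (1 uM) to phosphopeptide, resolved electrophoretically on a Caliper LC3000, fitted against inhibitor concentration for IC50. Reaction: N-terminal GST full-length Aurora A, ATP at its KM (15 uM), pH 7.5 HEPES with MgCl2/DTT, 25 C for 90 min.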

Row | IC50 | Structure (SMILES)
1 | > 100 nM | O=C1CCCN1CCCNc1ccc2c(=O)[nH]c3ncccc3c2c1 [Compound 479, 9-(3-(2-Oxopyrrolidin-1-yl)propylamino)benzo[c][1,8]naphthyridin-6(5H)-one]
2 | 11 to 100 nM | CN(C)CCCNC(=O)c1cccc2c1c(=O)[nH]c1nccc(Nc3ccc(NC(=O)c4ccccc4)cc3)c12 [Compound 436, 1-(4-Benzoylamino-phenylamino)-6-oxo-5,6-dihydro-benzo[c][1,8]naphthyridine-7-carboxylic acid (3-dimethylamino-propyl)-amide]
3 | < 11 nM | O=C(Nc1ccc(Nc2ccnc3[nH]c(=O)c4ccccc4c23)cc1)c1ccc(Cl)cc1Cl [Compound 399, 2,4-Dichloro-N-[4-(6-oxo-5,6-dihydro-benzo[c][1,8]naphthyridin-1-ylamino)-phenyl]-benzamide]
4 | > 100 nM | COc1cccc(C#Cc2ccnc3[nH]c(=O)c4ccccc4c23)c1 [Example 160, 1-(3-Methoxy-phenylethynyl)-5H-benzo[c][1,8]naphthyridin-6-one]
5 | < 11 nM | O=C(Nc1ccc(Nc2ccnc3[nH]c(=O)c4ccccc4c23)cc1)c1ccc(F)cc1F [Compound 391, 2,4-Difluoro-N-[4-(6-oxo-5,6-dihydro-benzo[c][1,8]naphthyridin-1-ylamino)-phenyl]-benzamide]
6 | < 11 nM | O=C(Nc1ccc(Nc2ccnc3[nH]c(=O)c4cc(Cl)ccc4c23)cc1)c1ccc(F)cc1C(F)(F)F [Compound 415, 4-Fluoro-N-[4-(8-chloro-6-oxo-5,6-dihydro-benzo[c][1,8]naphthyridin-1-ylamino)-phenyl]-2-trifluoromethyl-benzamide]
7 | > 100 nM | O=C(c1cccn(-c2ccc(F)cc2)c1=O)N1CCOc2cc(Oc3ccnc4[nH]c(=O)c5ccccc5c34)ccc21 [Example 228, 1-{4-[1-(4-Fluoro-phenyl)-2-oxo-1,2-dihydro-pyridine-3-carbonyl]-3,4-dihydro-2H-benzo[1,4]oxazin-7-yloxy}-5H-benzo[c][1,8]naphthyridin-6-one]
8 | < 11 nM | O=C(Nc1ccc(Nc2ccnc3[nH]c(=O)c4ccc(F)cc4c23)cc1)c1ccccc1 [Compound 412, N-[4-(9-Fluoro-6-oxo-5,6-dihydro-benzo[c][1,8]naphthyridin-1-ylamino)-phenyl]-benzamide]
9 | < 11 nM | O=C(Nc1ccc(Nc2ccnc3[nH]c(=O)c4ccc(F)cc4c23)cc1)c1ccc(F)cc1C(F)(F)F [Compound 413, 4-Fluoro-N-[4-(9-fluoro-6-oxo-5,6-dihydro-benzo[c][1,8]naphthyridin-1-ylamino)-phenyl]-2-trifluoromethyl-benzamide]
10 | 11 to 100 nM | O=C(Nc1ccc(Nc2ccnc3[nH]c(=O)c4ccccc4c23)cc1)C1(C(F)(F)F)CCCCC1 [Compound 499, N-(4-(6-Oxo-5,6-dihydrobenzo[c][1,8]naphthyridin-1-ylamino)phenyl)-1-(trifluoromethyl)cyclohexanecarboxamide]
11 | 11 to 100 nM | O=c1[nH]c2ncccc2c2cc(NCc3ccccc3Br)ccc12 [Compound 469, 9-(2-Bromobenzylamino)benzo[c][1,8]naphthyridin-6(5H)-one]
12 | > 100 nM | O=c1[nH]c2ncccc2c2cc(NCc3ccc(F)cc3)ccc12 [Example 43, 9-(4-Fluoro-benzylamino)-5H-benzo[c][1,8]naphthyridin-6-one]
13 | < 11 nM | COc1cc2c(=O)[nH]c3nccc(Nc4ccc(NC(=O)c5ccc(F)cc5C(F)(F)F)cc4)c3c2cc1OC [Compound 416, 4-Fluoro-N-[4-(8,9-dimethoxy-6-oxo-5,6-dihydro-benzo[c][1,8]naphthyridin-1-ylamino)-phenyl]-2-trifluoromethyl-benzamide]
14 | < 11 nM | COc1cccc(F)c1C(=O)Nc1ccc(Nc2ccnc3[nH]c(=O)c4ccccc4c23)cc1 [Compound 504, 2-Fluoro-6-methoxy-N-(4-(6-oxo-5,6-dihydrobenzo[c][1,8]naphthyridin-1-ylamino)phenyl)benzamide]
15 | < 11 nM | O=C(Nc1ccc(Nc2ccnc3[nH]c(=O)c4ccccc4c23)cc1)c1ccc(Cl)c(Cl)c1 [Compound 398, 3,4-Dichloro-N-[4-(6-oxo-5,6-dihydro-benzo[c][1,8]naphthyridin-1-ylamino)-phenyl]-benzamide]

Continued, compound first:

Row | Structure (SMILES) | IC50
16 | O=C(Nc1ccc(Nc2ccnc3[nH]c(=O)c4ccccc4c23)c(F)c1)c1ccccc1 [Compound 321, N-(3-Fluoro-4-(6-oxo-5,6-dihydrobenzo[c][1,8]naphthyridin-1-ylamino)phenyl)benzamide] | < 11 nM
17 | CN1CCN(Cc2cccc(C(=O)Nc3ccc(Nc4ccnc5[nH]c(=O)c6ccccc6c45)cc3)c2)CC1 [Compound 354, 3-((4-Methylpiperazin-1-yl)methyl)-N-(4-(6-oxo-5,6-dihydrobenzo[c][1,8]naphthyridin-1-ylamino)phenyl)benzamide] | > 100 nM
18 | O=C(Nc1ccccc1)C1(CNc2ccnc3[nH]c(=O)c4ccccc4c23)CC1 [Compound 363, 1-((6-Oxo-5,6-dihydrobenzo[c][1,8]naphthyridin-1-ylamino)methyl)-N-phenylcyclopropanecarboxamide] | > 100 nM
19 | O=C(NCCO)c1ccc2c(=O)[nH]c3nccc(Nc4ccc(NC(=O)c5ccccc5)cc4)c3c2c1 [Compound 289, 1-(4-Benzamidophenylamino)-N-(2-hydroxyethyl)-6-oxo-5,6-dihydrobenzo[c][1,8]naphthyridine-9-carboxamide] | 11 to 100 nM
20 | CN1CCN(Cc2ccc3c(=O)[nH]c4nccc(Nc5ccc(NC(=O)c6ccccc6)cc5)c4c3c2)CC1 [Compound 291, N-(4-(9-((4-methylpiperazin-1-yl)methyl)-6-oxo-5,6-dihydrobenzo[c][1,8]naphthyridin-1-ylamino)phenyl)benzamide] | < 11 nM
21 | NC(=O)c1ccc2c(=O)[nH]c3nccc(Nc4ccc(NC(=O)c5ccccc5)cc4)c3c2c1 [Compound 282, 1-(4-benzamidophenylamino)-6-oxo-5,6-dihydrobenzo[c][1,8]naphthyridine-9-carboxamide] | < 11 nM
22 | O=C(Nc1ccc(Nc2ccnc3[nH]c(=O)c4ccccc4c23)cc1)c1c(F)cccc1F [Compound 388, 2,6-Difluoro-N-[4-(6-oxo-5,6-dihydro-benzo[c][1,8]naphthyridin-1-ylamino)-phenyl]-benzamide] | < 11 nM
23 | O=C(Nc1ccc(Nc2ccnc3[nH]c(=O)c4ccccc4c23)cc1F)c1ccccc1 [Compound 320, N-(2-Fluoro-4-(6-oxo-5,6-dihydrobenzo[c][1,8]naphthyridin-1-ylamino)phenyl) benzamide] | 11 to 100 nM
24 | Cc1cc(Nc2ccnc3[nH]c(=O)c4ccccc4c23)n(CC(=O)Nc2ccccc2)n1 [Compound 308, 2-(3-Methyl-5-(6-oxo-5,6-dihydrobenzo[c][1,8]naphthyridin-1-ylamino)-1H-pyrazol-1-yl)-N-phenylacetamide] | > 100 nM
25 | CN1CCN(CCNC(=O)c2ccc3c(=O)[nH]c4nccc(Nc5ccc(NC(=O)c6ccccc6)cc5)c4c3c2)CC1 [Compound 286, 1-(4-benzamidophenylamino)-N-(2-(4-methylpiperazin-1-yl)ethyl)-6-oxo-5,6-dihydrobenzo[c][1,8]naphthyridine-9-carboxamide] | 11 to 100 nM
26 | CNC(=O)Nc1ccc(Nc2ccnc3[nH]c(=O)c4ccccc4c23)cc1 [Compound 342, 1-Methyl-3-(4-(6-oxo-5,6-dihydrobenzo[c][1,8]naphthyridin-1-ylamino)phenyl)urea] | 11 to 100 nM
27 | CN1CCC(C(=O)Nc2ccc(Nc3ccnc4[nH]c(=O)c5ccccc5c34)cc2)CC1 [Compound 346, 1-Methyl-N-(4-(6-oxo-5,6-dihydrobenzo[c][1,8]naphthyridin-1-ylamino)phenyl)piperidine-4-carboxamide] | > 100 nM
28 | CN1CCN(C(=O)c2ccc3c(c2)c(=O)[nH]c2nccc(Nc4ccc(NC(=O)c5ccccc5)cc4)c23)CC1 [Compound 269, N-(4-(8-(4-Methylpiperazine-1-carbonyl)-6-oxo-5,6-dihydrobenzo[c][1,8]naphthyridin-1-ylamino)phenyl)benzamide] | 11 to 100 nM
29 | O=C(Nc1ccc(Nc2ccnc3[nH]c(=O)c4cc(Cl)ccc4c23)cc1)c1ccccc1 [Compound 275, N-(4-(8-Chloro-6-oxo-5,6-dihydrobenzo[c][1,8]naphthyridin-1-ylamino)phenyl)benzamide] | 11 to 100 nM
30 | O=C(Nc1ccc(CNc2ccnc3[nH]c(=O)c4ccccc4c23)cc1)c1ccccc1 [Compound 325, N-(4-((6-Oxo-5,6-dihydrobenzo[c][1,8]naphthyridin-1-ylamino)methyl)phenyl)benzamide] | 11 to 100 nM
31 | CN(C)CCN(C)Cc1ccc2c(=O)[nH]c3nccc(Nc4ccc(NC(=O)c5ccccc5)cc4)c3c2c1 [Compound 292, N-(4-(9-(((2-(Dimethylamino)ethyl)(methyl)amino)methyl)-6-oxo-5,6-dihydrobenzo[c][1,8]naphthyridin-1-ylamino)phenyl)benzamide] | 11 to 100 nM
32 | O=C(Nc1ccc(CNc2ccnc3[nH]c(=O)c4ccccc4c23)cc1)c1cc(F)cc(F)c1 [Compound 326, 3,5-Difluoro-N-(4-((6-oxo-5,6-dihydrobenzo[c][1,8]naphthyridin-1-ylamino)methyl)phenyl)benzamide] | 11 to 100 nM
